Measured values published in US8414989B2, “Cyclodextrin compositions, articles, and methods” (Cellresin Technologies, LLC, priority 2011, dated 2013).

Legend:
Format in all cases: physicochemical
[1] = Example 4: 1-MCP headspace release versus coated surface area and time; details: 4.0 wt-% 1-MCP/c/α-CD coating, 20 μL water
Procedure: A 4.0 wt-% 1-MCP/c/α-CD blend was made according to the technique of Example 3. A rubber ink roller was used to deliver a coating having a nominal thickness of 0.3 μm to a 20 cm by 20 cm polyethylene extrusion coated paper sheet using the technique of Example 2. The coated sheet was cured according to the procedure of Example 2.
Using a razor blade, 26 cm^2, 52 cm^2, and 78 cm^2 samples were cut from the coated portion of the sheet. Each sample was placed in a 250 mL serum bottle. The bottles were sealed with TEFLON® faced silicone septa. Then 20 μL of deionized water was injected into each bottle. […] Bottle headspace analysis was conducted according to the technique of Example 3 at 0.17 hours, 0.5 hours, 1 hour, 2 hours, 4 hours and 24 hours after the injection of water.

[2] = Example 6: 1-MCP headspace release from PSA labels; details: 2.5 cm x 2.5 cm PSA label, 250 mL bottle; for Headspace concentration of 1-MCP, average: 50 μL water
Procedure: A 100 mL quartz beaker was charged with 54 g of 2-isooctyl acrylate, 6 g of acrylic acid, and 0.60 g of 1-hydroxycyclohexyl phenyl ketone (IRGACURE® 184, Ciba Specialty Chemicals Corp. of Tarrytown, N.Y.). The beaker was equipped with a mechanical stirrer, and the contents were mixed for about 5 minutes while sparging with dry helium. Then the beaker was irradiated with a medium pressure mercury arc lamp operating at 79 watts per cm situated about 15 cm from the side of the beaker. The light was turned off when the contents of the flask were of a honey-like consistency, about 1.5 minutes. The beaker was further charged with 3.23 g of 1-MCP/c/α-CD, 0.89 g of IRGACURE® 184, 5.8 g of isooctyl acrylate, and 0.72 g of acrylic acid. The beaker contents were mixed until uniformly dispersed, about 5 minutes.
About 4 mL of the mixture in the bottle was removed with a metered dropper and dispensed on 30.5 cm by 30.5 cm white paper labelstock, and drawn down using a metering rod (Meyer coating rod #30) having a delivered coating thickness of 25 microns. Then a 21.5 cm by 28 cm silicone coated polyester (PET) film sheet (120 μm thick (obtained from the 3M Company of St. Paul, Minn.) was placed over the coated labelstock, taking care not to entrain air bubbles. The coated and covered labelstock was cut into 10 cm by 20 cm rectangles using a paper cutter. The cut samples were passed by hand about 15 cm beneath a medium pressure mercury arc lamp operating at 79 watts per cm; multiple hand passes beneath the UV light or about 30 seconds under the lamp was used to cure the adhesive. The cured coated labelstock sheets were allowed to sit PET side up on a laboratory bench overnight.
A paper cutter was used to cut six replicate 2.5 cm by 2.5 cm squares from the sheets. Because the UV cured coating composition is a pressure sensitive adhesive, or PSA, the 2.5 cm by 2.5 cm squares are termed “PSA labels.” Each PSA label, with the silicone coated PET still in place, was placed in a 250 mL serum bottle. Each bottle was sealed with a TEFLON® faced silicone septum. The headspace concentration of 1-MCP was measured after 1 hour following introduction of the PSA label into a bottle, using the technique of Example 3 except that 250 μL of gas was removed from the sample bottle for the analysis. 1-MCP was below the quantification limit of 0.01 ppm.
Then 50 μL of deionized water was injected into each bottle. […] The sealed bottle headspace was analyzed at 10 minutes, 30 minutes, and 60 minutes, using the technique of Example 3. A final headspace sample was analyzed 16 hours after the injection of water. The data illustrate that 1-MCP was released from a PSA label into the headspace when exposed to water vapor (humidity) and that its concentration increases over time.

[3] = Example 7: 1-MCP permeation through polyethylene film from PSA label into 1,000 mL headspace; details: 11 cm diameter PSA label on 25 μm PE film, 1,000 mL kettle
From the text: This method is designed to measure the permeability of 1-MCP through polyethylene film into a confined, fixed volume headspace following release from a PSA label adhered to the surface of the film defining the fixed volume. The methodology simulates the headspace of a flexible film package having initially low relative humidity, wherein a PSA label containing 1-MCP is adhered to the outside of the package. As the humidity rises inside the package by respiration of fresh agricultural products, the water vapor increases in concentration and it diffuses through the package film to the outside environment but also into the PSA. Thus, as the water vapor diffuses through the film into the 1-MCP adhesive label adhered to the outside of the package film; 1-MCP released from the label adhesive into the fixed volume (headspace) was measured.
A coated, cured labelstock sheet made according to the procedure of Example 6 was cut by hand into an 11 cm diameter circle. Next the PET liner was removed from the label and the label was adhered via the PSA to a 13.5 cm diameter, 1 mil (25 μm) thick polyethylene (PE) film (obtained from the Pliant Corporation of Schaumburg, Ill.). The paper side of this structure was then covered with aluminum foil. The foil/paper/PSA/PE layered structure was mounted onto the open end of a 1,000 mL glass reaction kettle bottom (6947-1LBO, from Corning Glass of Corning, N.Y.) and sealed to the kettle's glass flange using aluminum sealing rings. The layered structure was oriented over the 11 cm opening with the PE film facing in and the aluminum facing out. The glass reaction kettle was modified with a silicone septum port to allow sampling of the 1,000 mL headspace. Headspace analysis was conducted by removing 250 μL of headspace volume from the 1,000 mL glass kettle and analyzing according to the technique of Example 3.
Then 200 μL of water was added through the septum port to the inside of the glass kettle. The headspace was analyzed for 1-MCP at 17, 25 and 90 hours after the injection of water using the technique employed in Example 3. At 17 hours, 25 hours, and 90 hours after injection of the water, the 1-MCP headspace concentration was 3.6 ppm, 7.0 ppm and 8.0 ppm of 1-MCP, respectively.

Question: Which “Headspace concentration of 1-MCP” value ([1]; 26 cm^2, 250 mL bottle, 0.17 hrs) does the source give for `CC1=CC1` [1-MCP, 1-methylcyclopropene] here?
Answer: Its value is 0.25 ppm -v/v.

Question: What about the “Headspace concentration of 1-MCP” value ([1]; 26 cm^2, 250 mL bottle, 0.5 hrs) of the same compound?
Answer: Its value is 1.5 ppm -v/v.

Question: What about the “Headspace concentration of 1-MCP” value ([1]; 26 cm^2, 250 mL bottle, 1 hr) of the same compound?
Answer: The value was 2.4 ppm -v/v.

Question: And the “Headspace concentration of 1-MCP” value ([1]; 26 cm^2, 250 mL bottle, 2 hrs)?
Answer: The value was 3.7 ppm -v/v.

Question: And the “Headspace concentration of 1-MCP” value ([1]; 26 cm^2, 250 mL bottle, 4 hrs)?
Answer: The value was 5.8 ppm -v/v.

Question: What about the “Headspace concentration of 1-MCP” value ([1]; 26 cm^2, 250 mL bottle, 24 hrs) of the same compound?
Answer: Its value is 9.6 ppm -v/v.

Question: And the “Headspace concentration of 1-MCP” value ([1]; 52 cm^2, 250 mL bottle, 0.17 hrs)?
Answer: Its value is 0.66 ppm - v/v.

Question: What about the “Headspace concentration of 1-MCP” value ([1]; 52 cm^2, 250 mL bottle, 0.5 hrs) of the same compound?
Answer: Its value is 2.2 ppm - v/v.

Question: And the “Headspace concentration of 1-MCP” value ([1]; 52 cm^2, 250 mL bottle, 1 hr)?
Answer: The value was 4.2 ppm - v/v.

Question: And the “Headspace concentration of 1-MCP” value ([1]; 52 cm^2, 250 mL bottle, 2 hrs)?
Answer: The value was 7.0 ppm - v/v.

Question: And the “Headspace concentration of 1-MCP” value ([1]; 52 cm^2, 250 mL bottle, 4 hrs)?
Answer: Its value is 9.9 ppm - v/v.

Question: What about the “Headspace concentration of 1-MCP” value ([1]; 52 cm^2, 250 mL bottle, 24 hrs) of the same compound?
Answer: Its value is 16.1 ppm - v/v.

Question: What about the “Headspace concentration of 1-MCP” value ([1]; 78 cm^2, 250 mL bottle, 0.17 hrs) of the same compound?
Answer: The value was 1.7 ppm - v/v.

Question: And the “Headspace concentration of 1-MCP” value ([1]; 78 cm^2, 250 mL bottle, 0.5 hrs)?
Answer: The value was 3.4 ppm - v/v.

Question: And the “Headspace concentration of 1-MCP” value ([1]; 78 cm^2, 250 mL bottle, 1 hr)?
Answer: Its value is 5.2 ppm - v/v.

Question: And the “Headspace concentration of 1-MCP” value ([1]; 78 cm^2, 250 mL bottle, 2 hrs)?
Answer: The value was 7.9 ppm - v/v.

Question: And the “Headspace concentration of 1-MCP” value ([1]; 78 cm^2, 250 mL bottle, 4 hrs)?
Answer: Its value is 12.4 ppm - v/v.

Question: What about the “Headspace concentration of 1-MCP” value ([1]; 78 cm^2, 250 mL bottle, 24 hrs) of the same compound?
Answer: The value was 20.0 ppm - v/v.

Question: And the “Headspace concentration of 1-MCP, average” value ([2]; 0.17 hours)?
Answer: Its value is 0.01 ppm (v/v).

Question: And the “Headspace concentration of 1-MCP, average” value ([2]; 0.5 hours)?
Answer: The value was 1.3 ppm (v/v).

Question: What about the “Headspace concentration of 1-MCP, average” value ([2]; 1 hour) of the same compound?
Answer: Its value is 3.6 ppm (v/v).

Question: And the “Headspace concentration of 1-MCP, average” value ([2]; 16 hours)?
Answer: The value was 29.7 ppm (v/v).

Question: And the “Headspace concentration of 1-MCP” value ([2]; no water, 1 hour, quantification limit)?
Answer: The value was < 0.01 ppm.

Question: And the 1-MCP headspace concentration ([3]; 200 μL water, 17 hours)?
Answer: Its 1-MCP headspace concentration is 3.6 ppm.

Question: What about the 1-MCP headspace concentration ([3]; 200 μL water, 25 hours) of the same compound?
Answer: The 1-MCP headspace concentration was 7.0 ppm.

Question: What about the 1-MCP headspace concentration ([3]; 200 μL water, 90 hours) of the same compound?
Answer: Its 1-MCP headspace concentration is 8.0 ppm.

Question: What about the 1-MCP headspace concentration ([3]; no added water, two hours) of the same compound?
Answer: The 1-MCP headspace concentration was < 0.01 ppm.
